# Reference: patent US8530433B2, “Use of icariside II in manufacture of products for preventing or treating male or female sexual dysfunction” (Bjo-Biomed Ltd, priority 2008, dated 2013)
# How the values were obtained:
# PAE-EGFR cells = test: NOS enzyme activity in EGFR expressing PAE-EGFR cells, NOS kit; assay type: cell-based, porcine; details: PAE-EGFR cells; LNNA 10^-5 M
# Procedure: (§1) Porcine vascular endothelial cells (PAE) were provided by the Institute of Urology, Peking University. The determination of the effect of icariside II on NOS activity in the endothelial cell is conducted using NOS kit (Cayman Chemical company, Ann Arbor, Mich., USA). Vascular endothelial cells (PAE) were treated with different concentrations of icariside II (0, 10^−9, 10^−8, 10^−7, 10^−6, 10^−5 and 10^−4 M) (sildenafil as the control group). 180 μl lysate was added into each culture well. 20 μl supernatant was used for protein concentration assay with BCA protein kit. And, 100 μl supernatant was analyzed for NOS activity with NOS kit (Cayman Chemical company, Ann Arbor, Mich., USA). NOS activity (units/mg)=[(valueNos-measure−valueNOS-blank)÷(38.3×10^6)]×[(2.15+supernatant volume)÷(15×supernatant volume)]÷[protein concentration of each Petri dish]. 1) The EGFR gene was subcloned into pGFP plasmid to construct pGFP-EGFR expression vector. With Liposome transfection reagent (Qigen), pGFP-EGFR was transfected into PAE cells. After the selection with 1800 μg/ml of G418, a single cell clone was selected. Western blot confirms the stable expression of EGFR in the PAE-EGFR cells.
# [1] = test system: Primary human corpus cavernosum smooth muscle cells (CCSMCs); test: NOS activity in corpus cavernosum smooth muscle cells; assay type: cell-based; details: LNNA 4×10^−4 M
# Procedure: Primary human corpus cavernosum smooth muscle cells ([…]) were provided by the Andrology Center of Peking University. The […] of the third passage were cultured in six well plates for two days. Then the cells were treated with icariside II or the sildenafil at a concentration of 0, 10^-9, 10^-8, 10^-7, 10^-6, 10^-5 M; or treated with icariside II (0, 10^-9, 10^-8, 10^-7, 10^-6, 10^-5 M) in the presence or absence of LNNA (4×10^-4 M). The control group was cultured with DMEM only. After 24 hours, the cells were washed three times and 180 μl lysis buffer was added into each well; 60 μl cell suspension was taken for protein concentration assay with BCA protein kit; 100 μl cell suspension was taken for NOS activity test. NOS activity (units/mg protein)=[(valueNOS-measure-valueNOS-blank)÷(38.3×10^6)]×[(2.15+supernatant volume)÷(15×S supernatant volume)]÷[protein concentration in each well].
# [2] = test system: Porcine vascular endothelial cells (PAE); test: NOS enzyme activity in vascular endothelial cells (PAE), NOS kit; assay type: cell-based; details: LNNA 10^-5 M
# Procedure: as §1, with “dish].” for “dish]. 1) The EGFR gene was subcloned into pGFP plasmid to construct pGFP-EGFR expression vector. With Liposome transfection reagent (Qigen), pGFP-EGFR was transfected into PAE cells. After the selection with 1800 μg/ml of G418, a single cell clone was selected. Western blot confirms the stable expression of EGFR in the PAE-EGFR cells.”
compound,measurement,setting,value
"NC(=NCCC[C@H](N)C(=O)O)N[N+](=O)[O-] [LNNA, reference compound]",NOS baseline activity after treatment with NOS inhibitor,PAE-EGFR cells,3.27±0.319 u/mg
same,NOS activity after LNNA treatment,[1],0.3 units/mg protein
same,effect on the regulatory effect of icariside II on endothelial cell NOS activity,[2]; p<0.05,significantly inhibited
same,NOS baseline activity after treatment with NOS inhibitor,[2]; PAE cells,2.74±0.269 u/mg
